Experimental data reported in US20230117034A1, “PYRAZOLOTRIAZINES” (Bayer Aktiengesellschaft, priority 2019, published 2023).

Legend:
CDK9/CycT1 = biological target: T1, CDK9/CycT1 (Homo sapiens, UniProt P50750); test: CDK9/CycT1 high ATP kinase assay (TR-FRET, 2 mM ATP); assay type: biochemical; settings: 2 mM ATP (high ATP); median; read-out: CDK9/CyclinT1, 2 mM ATP (high ATP), IC50 (median)
T1 construct: Recombinant full-length His-tagged human CDK9 and CycT1; purchased Life Technologies PV4131; host or cells: insect cells
In short: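 Full-length His-tagged human CDK9/CycT1 (insect cell, ~0.5 μg/mL) preincubated 15 min at 22 °C with compound in Tris pH 8.0, MgCl2, DTT buffer before reaction with biotinylated peptide substrate at high ATP (2 mM).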

CDK2/CycE = biological target: T2, CDK2/CycE (Homo sapiens, UniProt P24941); test: CDK2/CycE kinase assay (TR-FRET, 2 mM ATP); assay type: biochemical; settings: 2 mM ATP (high ATP); median; read-out: CDK2/CyclinE, 2 mM ATP (high ATP), IC50 (median)
T2 construct: purchased ProQinase GmbH (Freiburg, Germany); host or cells: insect cells (Sf9)
In short: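 GST-tagged human CDK2 and CycE from Sf9 cells, about 10 ng/ml, pre-incubated 15 min at 22 °C with compound in Tris/HCl pH 8.0 buffer. Reaction with 2 mM ATP and 0.75 µM biotinylated peptide for 25 min at 22 °C. Phospho-RB antibody TR-FRET (665/620 nm ratio) read after 1 h; data normalised to no-inhibitor and no-enzyme controls.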

T1 sequence (P50750 whole entry): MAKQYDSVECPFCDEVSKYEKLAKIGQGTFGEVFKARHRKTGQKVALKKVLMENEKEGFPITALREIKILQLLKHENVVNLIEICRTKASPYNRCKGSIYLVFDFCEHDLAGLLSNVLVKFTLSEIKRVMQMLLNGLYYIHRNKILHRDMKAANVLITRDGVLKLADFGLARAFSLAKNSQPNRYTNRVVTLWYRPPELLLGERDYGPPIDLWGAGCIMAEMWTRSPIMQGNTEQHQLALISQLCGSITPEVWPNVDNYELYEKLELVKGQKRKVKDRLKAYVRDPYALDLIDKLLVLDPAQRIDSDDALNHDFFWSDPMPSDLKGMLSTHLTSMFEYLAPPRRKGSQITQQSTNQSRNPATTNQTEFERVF
T1 sequence (O60563 whole entry partner): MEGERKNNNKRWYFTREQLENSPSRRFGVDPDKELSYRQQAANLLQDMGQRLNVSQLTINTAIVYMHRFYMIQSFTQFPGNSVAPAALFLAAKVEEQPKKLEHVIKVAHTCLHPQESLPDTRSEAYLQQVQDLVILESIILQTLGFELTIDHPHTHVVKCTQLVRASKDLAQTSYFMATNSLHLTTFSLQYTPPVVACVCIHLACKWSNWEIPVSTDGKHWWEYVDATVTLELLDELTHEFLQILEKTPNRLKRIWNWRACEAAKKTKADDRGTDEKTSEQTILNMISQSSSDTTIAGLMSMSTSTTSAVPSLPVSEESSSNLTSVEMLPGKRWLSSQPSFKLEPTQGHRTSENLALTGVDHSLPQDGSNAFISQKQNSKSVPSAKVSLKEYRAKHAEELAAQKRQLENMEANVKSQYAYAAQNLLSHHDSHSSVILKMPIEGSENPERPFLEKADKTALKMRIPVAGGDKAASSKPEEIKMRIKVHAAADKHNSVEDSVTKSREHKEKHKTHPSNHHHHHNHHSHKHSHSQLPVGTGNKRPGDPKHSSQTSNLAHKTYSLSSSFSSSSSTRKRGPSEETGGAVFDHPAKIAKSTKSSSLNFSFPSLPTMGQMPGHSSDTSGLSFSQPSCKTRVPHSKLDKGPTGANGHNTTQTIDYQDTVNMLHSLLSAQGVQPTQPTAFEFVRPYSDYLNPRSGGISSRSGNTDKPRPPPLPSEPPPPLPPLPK

SMILES | IC50 (CDK9/CycT1) [µM] | IC50 (CDK2/CycE) [µM]
Fc1ccc(-c2nnc(CNc3nc(N4CCOCC4)nc4c(Br)cnn34)[nH]2)c(F)c1 [Example 41, 8-bromo-N-{[5-(2,4-difluorophenyl)-4H-1,2,4-triazol-3-yl]methyl}-2-(morpholin-4-yl)pyrazolo[1,5-a][1,3,5]triazin-4-amine] | > 20 | > 1.63
CCNc1nc(NCc2ncc(-c3ccccc3)[nH]2)n2ncc(C(C)C)c2n1 [Example 34, N^2-ethyl-N^4-[(5-phenyl-1H-imidazol-2-yl)methyl]-8-(propan-2-yl)pyrazolo[1,5-a][1,3,5]triazine-2,4-diamine] | > 20 | 6.18
Brc1cnn2c(NCc3nc4ccccc4[nH]3)nc(OC3CCCCC3)nc12 [Example 406, N-[(1H-benzimidazol-2-yl)methyl]-8-bromo-2-(cyclohexyloxy)pyrazolo[1,5-a][1,3,5]triazin-4-amine] | > 20 | 15
COc1cccc(-c2nnc(CNc3nc(N4CCOCC4)nc4c(Br)cnn34)[nH]2)c1 [Example 50, 8-bromo-N-{[5-(3-methoxyphenyl)-4H-1,2,4-triazol-3-yl]methyl}-2-(morpholin-4-yl)pyrazolo[1,5-a][1,3,5]triazin-4-amine] | 2.01 | 2.33
CN(CC(C)(C)O)c1nc(NCc2nc3c(F)c(F)ccc3[nH]2)n2ncc(C(F)(F)F)c2n1 [Example 402, 1-{[4-{[(4,5-difluoro-1H-benzimidazol-2-yl)methyl]amino}-8-(trifluoromethyl)pyrazolo[1,5-a][1,3,5]triazin-2-yl](methyl)amino}-2-methylpropan-2-ol] | 5.4 | 9.56
COc1cccc2nc(CNc3nc(N4CCOCC4)nc4c(-c5ccnnc5)cnn34)[nH]c12.O=C(O)C(F)(F)F [Example 439, trifluoroacetic acid N-[(7-methoxy-1H-benzimidazol-2-yl)methyl]-2-(morpholin-4-yl)-8-(pyridazin-4-yl)pyrazolo[1,5-a][1,3,5]triazin-4-amine] | > 20 | > 20
FC(F)(F)c1cnn2c(NCc3nnc(-c4ccccc4)[nH]3)nc(N3CCOCC3)nc12 [Example 427, 2-(morpholin-4-yl)-N-[(5-phenyl-4H-1,2,4-triazol-3-yl)methyl]-8-(trifluoromethyl)pyrazolo[1,5-a][1,3,5]triazin-4-amine] | 4.23 | 5.23
Fc1ccc2[nH]c(CNc3nc(N4CCOCC4)nc4c(-c5nccs5)cnn34)nc2c1F [Example 413, N-[(4,5-difluoro-1H-benzimidazol-2-yl)methyl]-2-(morpholin-4-yl)-8-(1,3-thiazol-2-yl)pyrazolo [1,5-a][1,3,5]triazin-4-amine] | > 20 | > 20
Brc1cnn2c(NCc3nc4ccccc4[nH]3)nc(OC3CCNCC3)nc12 [Example 411, N-[(1H-benzimidazol-2-yl)methyl]-8-bromo-2-[(piperidin-4-yl)oxy]pyrazolo[1,5-a][1,3,5]triazin-4-amine] | > 20 | 16.3
CC(C)COc1nc(NCc2nc3ccccc3[nH]2)n2ncc(Br)c2n1 [Example 409, N-[(1H-benzimidazol-2-yl)methyl]-8-bromo-2-(2-methylpropoxy)pyrazolo[1,5-a][1,3,5]triazin-4-amine] | > 20 | 12.8
Fc1cccc(-c2nnc(CNc3nc(N4CCOCC4)nc4c(Br)cnn34)[nH]2)c1 [Example 44, 8-bromo-N-{[5-(3-fluorophenyl)-4H-1,2,4-triazol-3-yl]methyl}-2-(morpholin-4-yl)pyrazolo[1,5-a][1,3,5]triazin-4-amine] | 0.885 | 1.13
O=C(O)C(F)(F)F.c1ccc2[nH]c(CNc3nc(N4CCOCC4)nc4c(-c5ccnnc5)cnn34)nc2c1 [Example 438, trifluoroacetic acid N-[(1H-benzimidazol-2-yl)methyl]-2-(morpholin-4-yl)-8-(pyridazin-4-yl)pyrazolo[1,5-a][1,3,5]triazin-4-amine] | > 20 | > 20
CN1CCN(c2nc(NCc3nc4ccccc4[nH]3)n3ncc(C4CC4(F)F)c3n2)CC1 (stereo not drawn) [Example 428, N-(1H-benzimidazol-2-ylmethyl)-8-(2,2-difluorocyclopropyl)-2-(4-methylpiperazin-1-yl)pyrazolo[1,5-a][1,3,5]triazin-4-amine] | > 20 | > 20
Clc1cc2nc(CNc3nc(N4CCOCC4)nc4c(-c5ccnnc5)cnn34)[nH]c2cc1Cl.O=C(O)C(F)(F)F [Example 440, trifluoroacetic acid N-[(5,6-dichloro-1H-benzimidazol-2-yl)methyl]-2-(morpholin-4-yl)-8-(pyridazin-4-yl)pyrazolo[1,5-a][1,3,5]triazin-4-amine] | > 20 | > 20
CN1CCN(c2nc(NCc3nc4c(F)c(F)ccc4[nH]3)n3ncc(C4CC4(F)F)c3n2)CC1 (stereo not drawn) [Example 429, N-[(4,5-difluoro-1H-benzimidazol-2-yl)methyl]-8-(2,2-difluorocyclopropyl)-2-(4-methylpiperazin-1-yl)pyrazolo[1,5-a][1,3,5]triazin-4-amine] | > 20 | > 20
Cc1cccc(-c2nnc(CNc3nc(N4CCOCC4)nc4c(Br)cnn34)[nH]2)c1 [Example 40, 8-bromo-N-{[5-(3-methylphenyl)-4H-1,2,4-triazol-3-yl]methyl}-2-(morpholin-4-yl)pyrazolo[1,5-a][1,3,5]triazin-4-amine] | 2.82 | 2.11
CC(C)c1cnn2c(NCc3nnc(-c4ccccc4)[nH]3)nc(N3CCN(C)CC3)nc12 [Example 37, 2-(4-methylpiperazin-1-yl)-N-[(5-phenyl-4H-1,2,4-triazol-3-yl)methyl]-8-(propan-2-yl)pyrazolo[1,5-a][1,3,5]triazin-4-amine] | > 20 | > 15.3
Cc1cnn2c(NCc3nc4c(F)c(F)ccc4[nH]3)nc(N(C)CC(C)(C)O)nc12 [Example 395, 1-[(4-{[(4,5-difluoro-1H-benzimidazol-2-yl)methyl]amino}-8-methylpyrazolo[1,5-a][1,3,5]triazin-2-yl)(methyl)amino]-2-methylpropan-2-ol] | > 20 | > 20
N#Cc1cnn2c(NCc3nc4ccccc4[nH]3)nc(N3CCOCC3)nc12 [Example 43, 4-{[(1H-benzimidazol-2-yl)methyl]amino}-2-(morpholin-4-yl)pyrazolo[1,5-a][1,3,5]triazine-8-carbonitrile] | > 20 | > 20
Fc1cccc2[nH]c(CNc3nc(N4CCN5CCC4CC5)nc4c(C(F)(F)F)cnn34)nc12 [Example 410, 2-(1,4-diazabicyclo[3.2.2]nonan-4-yl)-N-[(4-fluoro-1H-benzimidazol-2-yl)methyl]-8-(trifluoromethyl)pyrazolo[1,5-a][1,3,5]triazin-4-amine] | > 20 | 10
FC(F)n1cc(-c2cnn3c(NCc4nc5ccccc5[nH]4)nc(N4CCOCC4)nc23)cn1 [Example 421, N-[(1H-benzimidazol-2-yl)methyl]-8-[1-(difluoromethyl)-1H-pyrazol-4-yl]-2-(morpholin-4-yl)pyrazolo[1,5-a][1,3,5]triazin-4-amine] | > 20 | > 20
CN1CCN(c2nc(NCc3nc4c(F)c(F)ccc4[nH]3)n3ncc(CC(F)(F)F)c3n2)CC1 [Example 437, N-[(4,5-difluoro-1H-benzimidazol-2-yl)methyl]-2-(4-methylpiperazin-1-yl)-8-(2,2,2-trifluoroethyl) pyrazolo[1,5-a][1,3,5]triazin-4-amine] | > 20 | > 20
CC(C)(O)COc1nc(NCc2nc3ccccc3[nH]2)n2ncc(Br)c2n1 [Example 398, 1-[(4-{[(1H-benzimidazol-2-yl)methyl]amino}-8-bromopyrazolo[1,5-a][1,3,5]triazin-2-yl)oxy]-2-methylpropan-2-ol] | > 20 | 10.4
FC(F)(F)c1cccc(-c2nnc(CNc3nc(N4CCOCC4)nc4c(Br)cnn34)[nH]2)c1 [Example 52, 8-bromo-2-(morpholin-4-yl)-N-({5-[3-(trifluoromethyl)phenyl]-4H-1,2,4-triazol-3-yl}methyl)pyrazolo[1,5-a][1,3,5]triazin-4-amine] | 1.84 | 2.65
Cc1cnn2c(NCc3nc4c(F)c(F)ccc4[nH]3)nc(N3CCN(C)CC3)nc12 [Example 394, N-[(4,5-difluoro-1H-benzimidazol-2-yl)methyl]-8-methyl-2-(4-methylpiperazin-1-yl)pyrazolo[1,5-a][1,3,5]triazin-4-amine] | > 20 | > 20
COc1ccccc1-c1nnc(CNc2nc(N3CCOCC3)nc3c(Br)cnn23)[nH]1 [Example 61, 8-bromo-N-{[5-(2-methoxyphenyl)-4H-1,2,4-triazol-3-yl]methyl}-2-(morpholin-4-yl)pyrazolo[1,5-a][1,3,5]triazin-4-amine] | > 20 | 9.06
Cc1cnn2c(NCc3nc4ccccc4[nH]3)nc(N3CC4CCC(C3)N4)nc12 [Example 401, N-[(1H-benzimidazol-2-yl)methyl]-2-(3,8-diazabicyclo[3.2.1]octan-3-yl)-8-methylpyrazolo[1,5-a][1,3,5]triazin-4-amine] | > 20 | > 20
